Series [1] has as its target T1, human CRTH2 (Homo sapiens, UniProt Q9Y5Y4).
T1 construct: expressed in transfected cells; host or cells: L1.2 cells, pEAK expression vector, puromycin-selected
T1 sequence (Q9Y5Y4 1-395): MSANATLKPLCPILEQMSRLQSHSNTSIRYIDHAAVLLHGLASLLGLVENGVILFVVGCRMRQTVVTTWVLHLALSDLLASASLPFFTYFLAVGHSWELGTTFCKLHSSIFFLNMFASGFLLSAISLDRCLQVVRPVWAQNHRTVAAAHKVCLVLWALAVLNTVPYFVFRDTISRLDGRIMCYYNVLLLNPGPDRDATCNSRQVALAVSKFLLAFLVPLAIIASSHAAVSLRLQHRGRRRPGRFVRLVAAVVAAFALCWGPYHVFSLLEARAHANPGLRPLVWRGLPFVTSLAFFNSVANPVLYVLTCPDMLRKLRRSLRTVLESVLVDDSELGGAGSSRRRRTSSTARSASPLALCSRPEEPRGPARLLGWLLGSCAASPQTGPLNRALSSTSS
Put plainly: Measurement of Ca2+ mobilization in the human CRTH2-transfected L1.2 cell line (Assay 1). The class given is cell-based. On the procedure: Human CRTH2 cDNA was amplified from human eosinophil cDNA with gene specific primers containing restriction sites for cloning into pEAK vector (Edge Bio Systems). The human CRTH2 cDNA was cloned into the mammalian expression vector pEAK. This expression plasmid (40 μg) was transfected into L1.2 cells, at a cell density of 1×10^7 cells/500 μl, by using electroporation apparatus (Gene Pulser II, BioRad) at 250V/1,000 μF. One day after the transfection, puromycin (1 μg/ml, Sigma) was added into the cell culture plates. Two weeks after the transfection, grown cells were picked up for further growth.
[Measurement of Ca^2+ Mobilization in the Human CRTH2-Transfected L1.2 Cell Line] (Assay 1)
Ca^2+ loading buffer was prepared by mixing 5 μl of Fluo-3AM (2 mM in DMSO, final 1 μM, Molecular Probes) and 10 μl of pluronic F-127 (Molecular Probes) and diluting the resulting mixture in 10 ml of Ca^2+ assay buffer (20 mM HEPES pH 7.6, 0.1% BSA, 1 mM probenecid, Hanks' solution). The CRTH2 transfected cells which were prepared in Example 1 were washed with PBS, resuspended in Ca^2+ loading buffer at 1×10^7 cells/ml, and incubated for 60 min at room temperature. After incubation, cells were washed and resuspended in Ca^2+ assay buffer, then dispensed into transparent-bottom 96-well plates (#3631, Costar) at 2×10^5 cells/well. Cells were incubated with various concentrations of test compound for 5 minutes at room temperature. The emitted 480 nm fluorescence was measured on FDSS6000, a Ca^2+-measurement apparatus (Hamamatsu Photonics, Hamamatsu, Japan).
Assay results in Assay 1 are shown in Examples and tables of the Examples below. The data corresponds to the compounds as yielded by solid phase synthesis and thus to levels of purity of about 40 to 90%. For practical reasons, the compounds are grouped in four classes of activity as follows: IC50=A(< or =)10 nM<B(< or =)100 nM<C(< or =)500 nM<D

The mark [2] stands for this setting: PGD2-induced Ca2+ mobilization in CRTH2-transfected L1.2 cells, compounds as yielded by solid phase synthesis, purity about 40 to 90%, read-out: Activity class.

Molecules are shown by their SMILES. Where two headings read alike, the source gives them in different places.

The melting point is the temperature, or range, at which the solid turns liquid. `CN(C)c1nc(Cc2ccc(NC(=O)c3ccc(C(F)(F)F)cc3)cc2)nc(Cl)c1CC(=O)O` [Example 1-39] registered a melting point above 150 °C. In series [1] (setting [2]), the IC50 is below 10 nM.

For `CN(C)c1nc(Cc2ccc(NC(=O)c3ccc4ccccc4c3)cc2)ncc1CC(=O)O` [Example 2-1, {4-(Dimethylamino)-2-[4-(2-naphthoylamino)benzyl]pyrimidin-5-yl}acetic acid], the melting point was determined as 210 °C.

`CN(C)c1nc(Cc2ccc(NC(=O)c3ccc(Cl)c(Cl)c3)cc2)nc(N2CCCC2)c1CC(=O)O` [Example 7-13] gave a melting point of 150 to 152 °C. Further, the IC50 in series [1] (setting [2]) fell in the range of 100 to 500 nM.

As for `CC(C)CC(=O)Nc1ccc(Cc2ncc(CC(=O)[O-])c(N3CCCC3)n2)cc1.[Na+]` [Example 2-32], the melting point lay in the range of 148 to 150 °C. Besides, the IC50 in series [1] (setting [2]) fell in the range of 10 to 100 nM.

As to `O=C(O)Cc1c(Cl)nc(Cc2ccc(NC(=O)c3ccc(Cl)c(Cl)c3)cc2)nc1N1CCCC1` [Example 1-61], the melting point is 129 °C. Besides, in series [1] (setting [2]), the IC50 was below 10 nM.

The compound `CN(C)c1nc(Cc2ccc(NC(=O)c3ccc(C(F)(F)F)cc3)cc2)nc(N2CCCC2)c1CC(=O)O` [Example 7-12] showed a melting point of 144 to 147 °C. For the same compound, in series [1] (setting [2]), the IC50 lay in the range of 10 to 100 nM.

Consider `CC(=O)Nc1ccc(C(=O)Nc2ccc(Cc3nc(Cl)c(CC(=O)O)c(N4CCCC4)n3)cc2)cc1` [Example 1-54], for which the melting point worked out at 189 °C. The IC50 in series [1] (setting [2]) lay within 10 to 100 nM.

`CN(C)c1nc(Cc2ccc(NC(=O)OCc3ccccc3)cc2)ncc1CC(=O)O` [Example 9-1, [2-(4-{[(Benzyloxy)carbonyl]amino}benzyl)-4-(dimethylamino)pyrimidin-5-yl]acetic acid]: the melting point fell in the range of 101 to 104 °C. The IC50 in series [1] (setting [2]) was 10 to 100 nM.

In the case of `CN(CC(=O)NC1CCCC1)c1nc(Cc2ccc(NC(=O)c3ccc4ccccc4c3)cc2)nc(Cl)c1CC(=O)O` [Example 1-62], the melting point was above 176 °C. Also, in series [1] (setting [2]), the IC50 is below 10 nM.

In the case of `CN(CC(=O)NC1CCCC1)c1nc(Cc2ccc(NC(=O)c3cc4ccccc4[nH]3)cc2)nc(Cl)c1CC(=O)O` [Example 1-26], the melting point came out at 146 °C. Besides, in series [1] (setting [2]), the IC50 is below 10 nM.

Compound `CC(c1ccc(NC(=O)c2ccc(Cl)cc2)cc1)c1ncc(CC(=O)O)c(N(C)C)n1` (stereo not drawn) [Example 2-25] came in with a melting point of 131 to 134 °C. In addition, the IC50 in series [1] (setting [2]) was below 10 nM.

For `CN(CC(=O)NC1CCCC1)c1nc(Cc2ccc(NC(=O)c3ccc(Cl)c(Cl)c3)cc2)nc(Cl)c1CC(=O)O` [Example 1-19], the melting point stood at 144 °C. Further, the IC50 in series [1] (setting [2]) was below 10 nM.

In turn, `CN(C)c1nc(Cc2ccc(NC(=O)/C=C/c3ccccc3)cc2)ncc1CC(=O)O` [Example 2-10] showed a melting point of 135 to 140 °C. Also, the IC50 in series [1] (setting [2]) is below 10 nM.

In turn, `CN(C)c1nc(Cc2ccc(NC(=O)c3ccc(C(F)(F)F)cc3)cc2)ncc1CC(=O)O` [Example 2-13] gave a melting point of 149 to 153 °C. Moreover, the IC50 in series [1] (setting [2]) was below 10 nM.

For `CC(C)NC(=O)CN(C)c1nc(Cc2ccc(NC(=O)c3ccc4ccccc4c3)cc2)nc(Cl)c1CC(=O)O` [Example 1-7], the melting point is 181 °C. Besides, the IC50 in series [1] (setting [2]) is below 10 nM.

`CN(CC(=O)NC1CCCC1)c1nc(Cc2ccc(NC(=O)CCc3ccccc3)cc2)nc(Cl)c1CC(=O)O` [Example 1-14] registered a melting point above 139 °C. Besides, the IC50 in series [1] (setting [2]) is below 10 nM.

For the compound `CN(C)c1nc(Cc2ccc(NC(=O)c3ccc(Cl)cc3)cc2)nc(Cl)c1CC(=O)O` [Example 1-35], the melting point is above 166 °C. Moreover, the IC50 in series [1] (setting [2]) was below 10 nM.

On to `CN(C)c1nc(Cc2ccc(NC(=O)c3ccc(-c4ccccc4)cc3)cc2)nc(N2CCCC2)c1CC(=O)O` [Example 7-16], for which the melting point is 224 to 226 °C. Further, the IC50 in series [1] (setting [2]) was 10 to 100 nM.

As to `CN(CC(=O)NC1CCCC1)c1nc(Cc2ccc(NC(=O)C3CC3)cc2)nc(Cl)c1CC(=O)O` [Example 1-6], the melting point is above 146 °C. For the same compound, the IC50 in series [1] (setting [2]) was above 500 nM.

The compound `CCc1nc(Cc2ccc(NC(=O)c3ccc(C(F)(F)F)cc3)cc2)nc(N(C)C)c1CC(=O)O` [Example 8-9] came in with a melting point of 153 to 155 °C. In series [1] (setting [2]), the IC50 is below 10 nM.

As to `CN(C)c1nc(Cc2ccc(NC(=O)c3cccc(-c4ccccc4)c3)cc2)nc(N2CCCC2)c1CC(=O)O` [Example 7-15], the melting point lay within 147 to 179 °C. For the same compound, in series [1] (setting [2]), the IC50 was 10 to 100 nM.

In the case of `CN(CC(=O)NC1CCCC1)c1nc(Cc2ccc(NC(=O)Cc3ccc(-c4ccccc4)cc3)cc2)nc(Cl)c1CC(=O)O` [Example 1-24], the melting point was 124 °C. For the same compound, in series [1] (setting [2]), the IC50 lay within 100 to 500 nM.

`CN(C)c1nc(Cc2ccc(NC(=O)c3cc(Cl)cc(Cl)c3)cc2)nc(Cl)c1CC(=O)O` [Example 1-46] yielded a melting point above 99 °C. For the same compound, in series [1] (setting [2]), the IC50 is below 10 nM.

`CN(C)c1nc(Cc2ccc(NC(=O)OCc3ccc(F)cc3)cc2)ncc1CC(=O)O` [Example 9-2, {4-(dimethylamino)-2-[4-({[(4-fluorobenzyl)oxy]carbonyl}amino)benzyl]pyrimidin-5-yl}acetic acid] came in with a melting point of 95 to 97 °C. The IC50 in series [1] is below 10 nM.

`O=C(O)Cc1c(Cl)nc(Cc2ccc(NC(=O)c3ccc(Oc4ccccc4)cc3)cc2)nc1N1CCCC1` [Example 1-55] returned a melting point of 160 °C. Besides, the IC50 in series [1] (setting [2]) was below 10 nM.

For the compound `COc1ccc(/C=C/C(=O)Nc2ccc(Cc3nc(N(C)C)c(CC(=O)O)c(N4CCOCC4)n3)cc2)cc1` [Example 7-25], the melting point is 192 to 195 °C (dec.). In addition, the IC50 in series [1] (setting [2]) is below 10 nM.

The compound `CN(CC(=O)NC1CCCCC1)c1nc(Cc2ccc(NC(=O)c3ccc4ccccc4c3)cc2)nc(Cl)c1CC(=O)O` [Example 1-8] came in with a melting point of 134 °C. Also, in series [1] (setting [2]), the IC50 was below 10 nM.

The compound `CN(C)c1nc(Cc2ccc(NC(=O)c3ccc(Oc4ccccc4)cc3)cc2)nc(N2CCCC2)c1CC(=O)O` [Example 7-24] yielded a melting point of 137 to 140 °C. Moreover, the IC50 in series [1] (setting [2]) is below 10 nM.

As to `O=C(O)Cc1cnc(Cc2ccc(NC(=O)c3ccc4ccccc4n3)cc2)nc1N1CCCC1` [Example 2-27], the melting point is 221 to 224 °C (dec.). Moreover, in series [1] (setting [2]), the IC50 was below 10 nM.

For `CN(C)c1nc(Cc2ccc(NC(=O)c3ccc4ccccc4c3)cc2)nc(Cl)c1CC(N)=O` [Example 11, N-(4-{[5-(2-Amino-2-oxoethyl)-4-chloro-6-(dimethylamino)pyrimidin-2-yl]methyl}phenyl)-2-naphthamide], the melting point fell in the range of 189 to 190 °C.

Regarding `CN(C)c1nc(Cc2ccc(NC(=O)/C=C/c3ccccc3)cc2)nc(N(C)C)c1CC(=O)O` [Example 7-7], the IC50 in series [1] (setting [2]) is below 10 nM.

As for `CN(CC(=O)NC1CCCC1)c1nc(Cc2ccc(NC(=O)Nc3ccc4ccccc4c3)cc2)nc(Cl)c1CC(=O)O` [Example 4-4], in series [1] (setting [2]), the IC50 was 10 to 100 nM.

For the compound `O=C(O)Cc1c(Cl)nc(Cc2ccc(NC(=O)c3ccc4ccccc4c3)cc2)nc1N1CCOCC1` [Example 3-6], the IC50 in series [1] (setting [2]) was below 10 nM.

For `CN(CC(=O)NC1CCCC1)c1nc(Cc2ccc(NC(=O)c3ccc4ccccc4c3)cc2)ncc1CC(=O)O` [Example 2-2], the IC50 in series [1] (setting [2]) is below 10 nM.

With `CN(CC(=O)NC1CCCC1)c1nc(Cc2ccc(NC(=O)NCc3ccccc3)cc2)nc(Cl)c1CC(=O)O` [Example 4-2], the IC50 in series [1] (setting [2]) fell in the range of 10 to 100 nM.

The values above are taken from patent US7960393B2, “Pyrimidine derivatives useful for the treatment of diseases mediated by CRTH2” (Actimis Pharmaceuticals, Inc., priority 2002, dated 2011).
